In patent US20230149408A1, “INHIBITORS OF HUMAN IMMUNODEFICIENCY VIRUS REPLICATION” (VIIV HEALTHCARE UK (No. 5) LIMITED, priority 2020, published 2023):
Like-named read-outs stand apart in the source and are kept apart here.

Assays:
Type in all cases: cell-based
[1] = Compound cytotoxicity, XTT-based colorimetric assay; settings: human; uninfected MT2 cells, day 4, XTT
Protocol: (§1) Compound cytotoxicity and the corresponding CC50 values were determined using the same protocol as described in the antiviral assay except that uninfected cells were used. Cytotoxicity was assessed on day 4 in uninfected MT2 cells by using a XTT (2,3-bis[2-Methoxy-4-nitro-5-sulfophenyl]-2H-tetrazolium-5-carboxyanilide inner salt)-based colorimetric assay (Sigma-Aldrich, St Louis, Mo).

[2] = system: recombinant NL4-3 virus; experiment: HIV cell culture assay: antiviral activity toward recombinant NL4-3 Renilla luciferase virus in MT-2 cells
Protocol: HIV cell culture assay - MT-2 cells, 293T cells and the proviral DNA clone of NL4-3 virus were obtained from the NIH AIDS Research and Reference Reagent Program. MT-2 cells were propagated in RPMI 1640 media supplemented with 10% heat inactivated fetal bovine serum (FBS), […]. The 293T cells were propagated in DMEM media supplemented with 10% heat inactivated FBS, […]. A recombinant NL4-3 proviral clone, in which a section of the nef gene was replaced with the Renilla luciferase gene, was used to make the reference virus used in these studies. The recombinant virus was prepared through transfection of the recombinant NL4-3 proviral clone into 293T cells using Transit-293 Transfection Reagent from Mirus Bio LLC (Madison, WI). Supernatent was harvested after 2-3 days and the amount of virus present was titered in MT-2 cells using luciferase enzyme activity as a marker by measuring luciferase enzyme activity. Luciferase was quantitated using the EnduRen Live Cell Substrate from Promega (Madison, WI). Antiviral activities of compounds toward the recombinant virus were quantified by measuring luciferase activity in MT-2 cells infected for 4-5 days with the recombinant virus in the presence of serial dilutions of the compound.
The 50% effective concentration (EC50) was calculated by using the exponential form of the median effect equation where (Fa) = 1/[1+ (ED50/drug conc.)m] (Johnson VA, Byington RT. Infectivity Assay. In Techniques in HIV Research. ed. Aldovini A, Walker BD. 71-76. New York: Stockton Press.1990). The 50% inhibitory concentration (EC50) was calculated by using the exponential form of the median effect equation where percent inhibition = 1/[1 + (EC50/drug concentration)m], where m is a parameter that reflects the slope of the concentration-response curve.

[3] = system: uninfected MT2 cells; experiment: Compound cytotoxicity, XTT-based colorimetric assay; settings: day 4, XTT
Protocol: as §1

[4] = Human immunodeficiency virus 1, NL43, MT2

Cn1nc(NS(C)(=O)=O)c2c(Cl)ccc(-n3c([C@H](Cc4cc(F)cc(F)c4)NC(=O)Cn4nc(C(F)F)c5c4C(F)(F)[C@@H]4C[C@H]54)nc4nc(OCCC(F)(F)F)ccc4c3=O)c21 (atropisomer, axis not shown; (P)) [Example 4, N-(1-((6P)-3-(4-chloro-1-methyl-3-(methylsulfonamido)-1H-indazol-7-yl)-4-oxo-7-(3,3,3-trifluoropropoxy)-3,4-dihydropyrido[2,3-d]pyrimidin-2-yl)-2-(3,5-difluorophenyl)ethyl)-2-((3bS,4aR)-3-(difluoromethyl)-5,5-difluoro-3b,4,4a,5-tetrahydro-1H-cyclopropa[3,4]cyclopenta[1,2-c]pyrazol-1-yl)acetamide]
CC50 at 4 day [1]: > 500 nM | EC50 [2, 4]: 0.025 nM

Cn1nc(NS(C)(=O)=O)c2c(Cl)ccc(-n3c([C@H](Cc4cc(F)cc(F)c4)NC(=O)Cn4nc(C(F)F)c5c4C(F)(F)[C@@H]4C[C@H]54)nc4cc(-c5nccc(C(F)F)n5)ccc4c3=O)c21 (single isomer, unassigned) [Example 2]
CC50 at 4 day [1]: > 20000 nM | EC50 [2, 4]: 0.043 nM

Cn1nc(NS(C)(=O)=O)c2cccc(-n3c([C@H](Cc4cc(F)cc(F)c4)NC(=O)Cn4nc(C(F)F)c5c4C(F)(F)[C@@H]4C[C@H]54)nc4nc(OCCC(C)(F)F)ccc4c3=O)c21 (single isomer, unassigned) [Example 3]
CC50 at 4 day [1]: > 20000 nM | EC50 [2, 4]: 0.019 nM

Cn1nc(NS(C)(=O)=O)c2c(Cl)ccc(-n3c([C@H](Cc4cc(F)cc(F)c4)NC(=O)Cn4nc(C(F)F)c5c4C(F)(F)[C@@H]4C[C@H]54)nc4cc(-c5cccc(C(F)(F)F)n5)ccc4c3=O)c21 [Example 1, N-((S)-1-((3P)-3-(4-chloro-1-methyl-3-(methylsulfonamido)-1H-indazol-7-yl)-4-oxo-7-(6-(trifluoromethyl)pyridin-2-yl)-3,4-dihydroquinazolin-2-yl)-2-(3,5-difluorophenyl)ethyl)-2-((3bS,4aR)-3-(difluoromethyl)-5,5-difluoro-3b,4,4a,5-tetrahydro-1H-cyclopropa[3,4]cyclopenta[1,2-c]pyrazol-1-yl)acetamide]
CC50 [3]: > 20000 nM | EC50 ([2]; MT-2 cells infected 4-5 days, luciferase activity, read-out: EC50): 0.093 nM
